Measured values reported in patent US20120076899A1, “SHELF STABLE MONATIN SWEETENED BEVERAGE” (Cargill, Incorporated, priority 2009, published 2012).

Assay: Total indole concentrations under various light, O2 and EMIQ conditions
Format: physicochemical
Protocol: Synthetic R,R-monatin containing approximately 95.4% R,R-monatin monopotassium salt (dry basis) was obtained from CSIR (Modderfontein, South Africa). About 35 mg/L of this monatin was placed in a buffered solution at a pH of about 2.8-3.0 comprising 9 mM citric acid-trisodium citrate in high purity water and preserved with about 150 mg/L sodium benzoate. To some samples 200 ppm SANMELIN™ AO-3000 enzymatically modified isoquercitrin (EMIQ) (San-Ei Gen F.F.I.—Osaka, Japan) was added. Dissolved O2 levels were either increased by bubbling compressed air or reduced by bubbling N2 (99.9% purity) through these samples until the target O2 concentrations were achieved. Dissolved O2 levels were determined at 20° C. using a FOXY fluorescence quenching O2 analyzer from Ocean Optics (Dunedin, Fla.). Samples were stored in clear, glass ampules (˜10 mL) after O2 adjustment and heat-sealed to create an air-tight enclosure. The samples were then either stored in the dark, or exposed to light continuously (24 hours per day) in a light box (˜2200 lux light intensity) configured with a rotating carousel to provide even illumination. The source of light was provided by ultra-violet (UV) light wavelength transmitting bulbs and standard fluorescent bulbs. The heat produced by the lights warmed the samples to a temperature of about 28° C. Duplicate samples of each treatment were analyzed weekly for total indole concentrations via the following method.
Total indole (monatin and its intramolecular rearrangement products, monatin lactone and monatin lactam) concentrations were quantified by reversed phase HPLC at 40° C. using an Agilent Zorbax Eclipse C18 column with UV detection at 280 nm by PDA. The compounds were eluted by a gradient mobile phase consisting of (A) 1:1 methanol and acetonitrile (v:v) with 0.3% formic acid and 10 mM ammonium formate and (B) 0.3% formic acid in water with 10 mM ammonium formate. The integrated peak areas for the three (3) compounds were expressed in terms of monatin concentration (mg/L) based on a standard curve prepared for monatin. Thus, the extinction coefficient for monatin was applied to estimate concentrations of monatin lactone and monatin lactam since standards for these compounds were unavailable.

Structure (SMILES): NC(CC(O)(Cc1c[nH]c2ccccc12)C(=O)O)C(=O)O (stereo not shown) [R,R-monatin, 2-hydroxy-2-(indol-3-ylmethyl)-4-aminoglutaric acid]
- Total Indole Concentration (Light Exposure NO, O2 8.3 mg/L, EMIQ 0 ppm, 0 Days): 36.3 mg/L
- Total Indole Concentration (Light Exposure NO, O2 8.3 mg/L, EMIQ 0 ppm, 7 Days): 36.5 mg/L
- Total Indole Concentration (Light Exposure NO, O2 8.3 mg/L, EMIQ 0 ppm, 14 Days): 37.0 mg/L
- Total Indole Concentration (Light Exposure NO, O2 8.3 mg/L, EMIQ 0 ppm, 21 Days): 41.0 mg/L
- Total Indole Concentration (Light Exposure NO, O2 8.3 mg/L, EMIQ 0 ppm, 28 Days): 37.5 mg/L
- Total Indole Concentration (Light Exposure NO, O2 8.3 mg/L, EMIQ 200 ppm, 0 Days): 35.5 mg/L
- Total Indole Concentration (Light Exposure NO, O2 8.3 mg/L, EMIQ 200 ppm, 7 Days): 35.3 mg/L
- Total Indole Concentration (Light Exposure NO, O2 8.3 mg/L, EMIQ 200 ppm, 14 Days): 43.3 mg/L
- Total Indole Concentration (Light Exposure NO, O2 8.3 mg/L, EMIQ 200 ppm, 21 Days): 36.2 mg/L
- Total Indole Concentration (Light Exposure NO, O2 8.3 mg/L, EMIQ 200 ppm, 28 Days): 33.5 mg/L
- Total Indole Concentration (Light Exposure NO, O2 <0.5 mg/L, EMIQ 0 ppm, 0 Days): 34.7 mg/L
- Total Indole Concentration (Light Exposure NO, O2 <0.5 mg/L, EMIQ 0 ppm, 7 Days): 32.8 mg/L
- Total Indole Concentration (Light Exposure NO, O2 <0.5 mg/L, EMIQ 0 ppm, 14 Days): 34.4 mg/L
- Total Indole Concentration (Light Exposure NO, O2 <0.5 mg/L, EMIQ 0 ppm, 21 Days): 32.8 mg/L
- Total Indole Concentration (Light Exposure NO, O2 <0.5 mg/L, EMIQ 0 ppm, 28 Days): 35.2 mg/L
- Total Indole Concentration (Light Exposure NO, O2 <0.5 mg/L, EMIQ 200 ppm, 0 Days): 34.7 mg/L
- Total Indole Concentration (Light Exposure NO, O2 <0.5 mg/L, EMIQ 200 ppm, 7 Days): 32.8 mg/L
- Total Indole Concentration (Light Exposure NO, O2 <0.5 mg/L, EMIQ 200 ppm, 14 Days): 34.4 mg/L
- Total Indole Concentration (Light Exposure NO, O2 <0.5 mg/L, EMIQ 200 ppm, 21 Days): 32.8 mg/L
- Total Indole Concentration (Light Exposure NO, O2 <0.5 mg/L, EMIQ 200 ppm, 28 Days): 35.2 mg/L
- Total Indole Concentration (Light Exposure YES, O2 8.3 mg/L, EMIQ 0 ppm, 0 Days): 36.3 mg/L
- Total Indole Concentration (Light Exposure YES, O2 8.3 mg/L, EMIQ 0 ppm, 7 Days): 15.3 mg/L
- Total Indole Concentration (Light Exposure YES, O2 8.3 mg/L, EMIQ 0 ppm, 14 Days): 4.5 mg/L
- Total Indole Concentration (Light Exposure YES, O2 8.3 mg/L, EMIQ 0 ppm, 21 Days): 0.0 mg/L
- Total Indole Concentration (Light Exposure YES, O2 8.3 mg/L, EMIQ 0 ppm, 28 Days): 0.0 mg/L
- Total Indole Concentration (Light Exposure YES, O2 8.3 mg/L, EMIQ 200 ppm, 0 Days): 34.7 mg/L
- Total Indole Concentration (Light Exposure YES, O2 8.3 mg/L, EMIQ 200 ppm, 7 Days): 32.7 mg/L
- Total Indole Concentration (Light Exposure YES, O2 8.3 mg/L, EMIQ 200 ppm, 14 Days): 28.4 mg/L
- Total Indole Concentration (Light Exposure YES, O2 8.3 mg/L, EMIQ 200 ppm, 21 Days): 26.0 mg/L
- Total Indole Concentration (Light Exposure YES, O2 8.3 mg/L, EMIQ 200 ppm, 28 Days): 22.5 mg/L
- Total Indole Concentration (Light Exposure YES, O2 <0.5 mg/L, EMIQ 0 ppm, 0 Days): 36.3 mg/L
- Total Indole Concentration (Light Exposure YES, O2 <0.5 mg/L, EMIQ 0 ppm, 7 Days): 35.9 mg/L
- Total Indole Concentration (Light Exposure YES, O2 <0.5 mg/L, EMIQ 0 ppm, 14 Days): 36.0 mg/L
- Total Indole Concentration (Light Exposure YES, O2 <0.5 mg/L, EMIQ 0 ppm, 21 Days): 38.8 mg/L
- Total Indole Concentration (Light Exposure YES, O2 <0.5 mg/L, EMIQ 0 ppm, 28 Days): 34.6 mg/L
- Total Indole Concentration (Light Exposure YES, O2 <0.5 mg/L, EMIQ 200 ppm, 0 Days): 34.7 mg/L
- Total Indole Concentration (Light Exposure YES, O2 <0.5 mg/L, EMIQ 200 ppm, 7 Days): 35.8 mg/L
- Total Indole Concentration (Light Exposure YES, O2 <0.5 mg/L, EMIQ 200 ppm, 14 Days): 33.9 mg/L
- Total Indole Concentration (Light Exposure YES, O2 <0.5 mg/L, EMIQ 200 ppm, 21 Days): 35.1 mg/L
- Total Indole Concentration (Light Exposure YES, O2 <0.5 mg/L, EMIQ 200 ppm, 28 Days): 29.3 mg/L
